This test has as its system HT-1080 (ATCC, CCL-121) cells. In words: HT-1080 cell viability assay with ferroptosis inducer RSL3 (Cell Titer-Glo). It is filed as cell-based. The conditions noted are these: Homo sapiens; HT-1080 cells treated with RSL3; 3-fold, 10-point dilution, 1.1 μM highest concentration; Table 3; read-out: EC50 (nM), ferroptosis inhibitory activity. In outline:
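EC50 was derived by sigmoidal dose-response regression of CellTiter-Glo luminescence viability, expressed relative to untreated wells. Compounds were tested in a ten-point, threefold dilution series (highest 1.1 μM) in the presence of the ferroptosis inducer RSL3. HT-1080 cells had been seeded at 6000 per well and grown overnight first.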

EC50 data for one molecule are collected here from patent publication US20240327393A1 (SIRONAX LTD., priority 2021, published 2024).

As for `CCC(C)(C)Nc1ccc(Nc2ccc3c(c2)OCC(=O)N3)c(C)c1` [Compound 659, 7-[4-(1,1-dimethylpropylamino)-2-methyl-anilino]-4H-1,4-benzoxazin-3-one], the EC50 fell in the range of 0.1 to 100 nM.
